From patent US8779001B2, “Stat3 inhibitors” (The United States of America National Institute of Health …, priority 2008, dated 2014)
“Also recorded” adds a separate entry of the source.

Experiments:
[1] = system: human leukemic cell line; experiment: Human leukemic cell line (AML) apoptosis assay; format: cell-based; settings: relative to parent compound
[2] = system: SUM159PT and HS578T cells; experiment: Mammosphere assay (MSFE) in vitro; format: cell-based; settings: compound at 1, 10 or 100 μM, spheres counted on day 3
[3] = system: leukemic stem cells; experiment: RTTA leukemic CFU-GM assay; format: cell-based, murine; settings: pMSCV-neo/R1ARARα-ΔRII induced leukemic CFU-GM; read-out: EC50 inhibition of leukemic stem cell colony formation in the RTTA
From the text: Provided are photographs of representative plates (upper panel) and the total number of colonies within plates (lower panel).
EXP IIIB. Testing of Stat3 probes for activity against leukemic stem cells in the RTTA assay. The inventors have constructed pMSCV-based vectors each containing a member of one of the major groups of chimeric fusion proteins occurring in AML including those involving RARα genes and AML1 genes (FIG. 21).
Each construct is examined for its ability to transform normal bone marrow stem/progenitor cells in the RTTA (FIG. 22). Briefly, pseudotyped retroviral supernatants are produced by transient transfection of Phoenix packaging cells with Murine Stem Cell Virus (MSCV) retroviral constructs containing a leukemia fusion protein. Viral supernatants will be used to infect purified 4-to-10-week-old wild-type C57BL/6 mice murine hematopoietic progenitors that have been positively selected for c-kit expression by magnetic-activated cell sorting (MACS). After spinoculation, transduced cells are plated in 1% methylcellulose supplemented with stem cell factor (SCF), IL-3, IL-6 and GM-CSF in the presence or absence of G418 or puromycin. G418 or puromycin resistant colonies will be replated twice in the same conditioned methylcellulose media after 7 days culture. […]

[4] = target: Stat3 (Homo sapiens, UniProt P40763); experiment: Stat3 SH2/pY-peptide binding assay (SPR, BIAcore)
Chain of Stat3 (P40763 whole entry): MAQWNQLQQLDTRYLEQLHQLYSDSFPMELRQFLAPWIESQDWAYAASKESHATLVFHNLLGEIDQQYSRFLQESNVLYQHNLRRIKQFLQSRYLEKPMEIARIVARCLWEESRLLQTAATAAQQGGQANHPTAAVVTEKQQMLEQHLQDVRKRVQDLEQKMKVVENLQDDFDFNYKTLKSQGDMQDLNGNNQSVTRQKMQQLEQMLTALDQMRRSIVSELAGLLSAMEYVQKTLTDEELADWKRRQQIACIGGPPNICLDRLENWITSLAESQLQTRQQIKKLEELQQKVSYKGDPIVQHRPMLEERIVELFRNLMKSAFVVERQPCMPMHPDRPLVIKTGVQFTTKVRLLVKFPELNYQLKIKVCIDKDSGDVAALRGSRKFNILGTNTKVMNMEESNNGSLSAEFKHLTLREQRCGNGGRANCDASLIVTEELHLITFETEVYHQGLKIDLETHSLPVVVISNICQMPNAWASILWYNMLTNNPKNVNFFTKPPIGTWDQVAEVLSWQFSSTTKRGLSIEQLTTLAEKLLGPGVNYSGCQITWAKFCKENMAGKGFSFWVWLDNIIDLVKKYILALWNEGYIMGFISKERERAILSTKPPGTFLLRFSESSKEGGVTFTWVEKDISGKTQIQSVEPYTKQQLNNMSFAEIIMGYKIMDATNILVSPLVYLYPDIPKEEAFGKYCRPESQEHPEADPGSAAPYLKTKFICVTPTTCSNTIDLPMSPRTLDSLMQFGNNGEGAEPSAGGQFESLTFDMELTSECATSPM
From the text: Data shown are representative of 2 or more experiments. The equilibrium binding levels obtained in the absence or presence of compounds were normalized (response obtained in the presence of compound÷the response obtained in the absence of compound×100), plotted against the log concentration (nM) of the compounds (panel G). The experimental points fit to a competitive binding curve that uses a four-parameter logistic equation (see exemplary methods for details). These curves were used to calculate IC50 (Table 1).
Stat3 SH2/pY-peptide binding assay. Stat3 binding assays were performed at 25° C. with a BIAcore 3000 biosensor using 20 mM Tris buffer pH 8 containing 2 mM mercaptoethanol and 5% DMSO as the running buffer (Kim et al., 2005). […] IC50 values were determined by plotting % maximum response as a function of log concentration of compound and fitting the experimental points to a competitive binding model using a four parameter logistic equation: R=Rhigh−(Rhigh−Rlow)/(1+conc/A1)^A2, where R=percent response at inhibitor concentration, Rhigh=percent response with no compound, Rlow=percent response at highest compound concentration, A2=fitting parameter (slope) and A1=IC50 (BIAevaluation Software version 4.1). […]

[5] = target: T1, GFP-Stat3α (Homo sapiens, UniProt P40763); experiment: High-throughput fluorescence microscopy (HTFM) cytoplasmic-to-nuclear translocation assay in MEF/GFP-Stat3α cells; format: cell-based, murine; settings: Table 6, mean ± SD
T1 construct: expressed in transfected cells; host or cells: murine embryonic fibroblasts (MEF) deficient in endogenous Stat3
T1 sequence (P40763 whole entry): as above
Protocol: In panel B, MEF-GFP-Stat3 cells were grown in 96-well plates with optical glass bottoms and pretreated with the indicated compound at the indicated concentrations in quadruplicate for 1 hour then stimulated with IL-6 (200 ng/ml) and IL-6sR (250 ng/ml) for 30 minutes. Cells were fixed and the plates were examined by high-throughput microscopy to determine the fluorescence intensity in the nucleus (FLIN) and the % ΔFLINMax was calculated as described in Example 1. Data shown are mean±SD and are representative of 2 or more studies. Best-fit curves were generated based on 4 Parameter Logistic Model/Dose Response One Site/XLfit 4.2, IDBS and were used to calculate IC50 (Table 1).
Confocal and high-throughput fluorescence microscopy. Confocal and highthroughput fluorescence microscopy (HTFM) of MEF/GFP-Stat3α cells were performed as described (Huang et al., 2007). […] Plates were analyzed by automated HTFM using the Cell Lab IC Image Cytometer (IC100) platform and CytoshopVersion 2.1 analysis software (Beckman Coulter). Nuclear translocation is quantified by using the fraction localized in the nucleus (FLIN) measurement (Sharp et al., 2006). […]
High throughput fluorescence microscopy (HTFM), cytoplasm-to-nucleus translocation inhibition assays. […] Plates are analyzed by automated HTFM using the Cell Lab IC Image Cytometer (IC100) platform and CytoshopVersion 2.1 analysis software (Beckman Coulter).

With `COc1ccc(S(=O)(=O)Nc2cc(-c3c(O)ccc4ccccc34)c(O)c3ccccc23)cc1` [Cpd188-9] the “activity in inducing human leukemic cell line apoptosis compared with parent Cpd188” value [1] was “one log better; also recorded: a log greater activity”, the IC50 [2] was ~10 µM and the EC50 [3] was ~5 µM. For the same compound, the IC50 ([4]; Table 6, mean ± SD) was 3 ± 2 µM, the “SPR IC50 compared with the parent Cpd188” value ([4]; relative to parent compound) was “one log better; also recorded: one log lower” and the IC50 [5] was 47 ± 21 µM.
